{"source": "patent US20090055940A1", "about": "“ZEBRAFISH MODEL OF MLL LEUKEMOGENESIS” (priority 2006, published 2009)", "key": {"[1]": {"system": "zebrafish mll mRNA (exon 2-intron 2 splice junction)", "assay": "RT-PCR of zebrafish mll transcript splicing after morpholino knockdown", "format": "in vivo", "settings": "embryos injected at 1-2 cell stage with 16 ng, products sequenced", "experimental": "(§1) A detailed characterization of the role of wild-type mll in the development of the zebrafish hematopoietic system was also performed. The morpholino knockdown strategy (Paffett-Lugassy et al. (2005) Methods Mol. Med., 105:171-98) was employed to characterize the phenotype of loss of mll and determine whether zebrafish mll depletion is associated with a phenotype resembling that in mammals. […] The construct was obtained from Gene Tools, LLC (Philomath, Oreg.). Target mRNA sequence was 5′-[…]gtaaacaaattctctaaattattgt-3′ (SEQ ID NO: 38; Exon 2 is capitalized; intron 2 is lower case; underline indicates 25-base sequence encompassed by morpholino). The MO E2I2 sequence was 5′-tagagaatttgtttacCTATTGACG-3′ (SEQ ID NO: 39). The normal transcript splicing is shown by the grey lines in FIG. 11A. The aberrant splicing of exon 1 to exon 3 is shown by the black lines in FIG. 11A and the thick black line in FIG. 11A indicates a second form of aberrant splicing due to failure to splice out intron 2. A 2 mM (16 ng/nl) MO E2I2 stock solution was prepared in dH2O and diluted in Danieau Solution to the desired concentration.\nWild type male and female adults were bred, fertilized eggs collected, and 100 embryos at the 1-2 cell stage were injected with 16 ng of MO E2I2. […]"}, "zebrafish embryos": {"system": "zebrafish embryos", "assay": "Phenotype of zebrafish embryos after mll depletion (DIC microscopy of live embryos)", "format": "in vivo", "experimental": "as §1\nWild type male and female adults were bred, fertilized eggs collected, and 100 embryos at the 1-2 cell stage were injected with 16 ng of MO E2I2. Control uninjected embryos (n=100) and injected embryos were raised in petri dishes in E3 embryo medium (Paffett-Lugassy et al. (2005) Methods Mol. Med., 105:171-98) to the desired age. PTU (1-phenyl-2-thiourea) was applied at 24 hpf as described (Herbomel et al. (2005) Methods Mol. Med., 105:199-214) to inhibit melanin synthesis. To harvest embryos for RNA, 20 embryos were collected in 1.5 ml eppendorf tubes, E3/PTU was removed, embryos were anesthetized with tricaine, tricaine was removed, 100% methanol was added and tubes were placed at −20° C. RNA was prepared using RNeasy (Qiagen) and RT-PCR was performed using SuperScript III One Step kit (Invitrogen) with sense and antisense primers 5′-[…]-3′ (SEQ ID NO: 40) and 5′-[…]-3′ (SEQ ID NO: 41). Knockdown of properly spliced transcript and production of two aberrant transcripts shown in the schematics of FIG. 11B was confirmed by sequencing the products.\nDIC images of representative live embryos were taken using Leica DMRBE microscope with 4× objective and captured using Image Pro. […] By 48 hpf, erythroid cells are seen in heart/ventral anterior yolk sac of control (filled black arrow in FIG. 11C). In contrast, erythroid cells are barely visible in morphant (unfilled black arrow), and morphant has smaller eyes (arrow) and persistent hindbrain abnormality (arrow) (FIG. 11C)."}, "[2]": {"settings": "48 hpf, 16 ng injected, vs un-injected control embryos"}}, "note": "Entries after “also recorded” stand apart in the source; their conditions may differ.", "data": [{"substance": "5′-tagagaatttgtttacCTATTGACG-3′ (antisense TAGAGAATTTGTTTACCTATTGACG; all phosphorodiamidate morpholino (PMO)) [MO E2I2]", "values": [{"measurement": "effect on mll transcript splicing", "setting": "[1]", "result": "effectively disrupted; also recorded: inhibited proper splicing and resulted in production of two different aberrantly spliced mll mRNAs and reduction of the normal transcript"}, {"measurement": "morphant phenotype by 28 hpf", "setting": "zebrafish embryos; 28 hpf, 16 ng injected, vs un-injected control embryos", "result": "aberrant protrusion at the tip of the head and enlarged hindbrain ventricle"}, {"measurement": "erythroid cells in the heart and at the ventral yolk sac by 48 hpf", "setting": "zebrafish embryos; [2]", "result": "substantially less erythroid cells"}, {"measurement": "other morphant features (eyes, hindbrain)", "setting": "zebrafish embryos; [2]", "result": "smaller eyes and a prominent hindbrain abnormality"}, {"measurement": "viability of morphant embryos", "setting": "zebrafish embryos; embryos injected with 16 ng at 1-2 cell stage", "result": "viable"}, {"measurement": "embryos exhibiting a phenotype that included hematopoietic and neuronal defects, small size, and delayed development", "setting": "zebrafish embryos; of the 100 embryos injected with 16 ng at 1-2 cell stage", "result": "Approximately 60%"}]}]}
